Measurements reported in PubChem BioAssay AID720667 (NMMLSC, 2013).
The source made the active and inactive calls.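 The calls were made as follows: active = over 50% inhibition of phosphorylation of either protein kinase C substrates or the ERK kinase; inactive = both inhibited below 50%.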

Test system: TALL-104 cells, ERK phosphorylation flow cytometry
Experiment: blockers of stimulated ERK phosphorylation in TALL-104 – TALL-104 cells, flow cytometry, CherryPick01, mechanism study for lytic granule exocytosis inhibitor project, late-stage follow-up (AID 720667)
Settings: active compounds read high; dose or concentration not given here

SMILES	inhibition
CN(C)CCNC(=O)c1ccc(-c2cn3c(-c4ccc(Oc5ccccc5)cc4)cnc3cn2)cc1	-0.1% (inactive)
CCN(CC)CCCNc1ccc(-c2nnc(-c3ccc(OCC(C)C)cc3)o2)cn1	-22.6% (inactive)
COc1ccc(N2C(=O)CC(Sc3nnc(-c4ccccc4)o3)C2=O)cc1 (configuration not stated)	17.4% (inactive)
CCCCC[C@@H](C)N1C[C@@H](COCc2ccccc2)Oc2cc(N3CC[C@@H](N(C)C)C3)ccc2S1(=O)=O	51.1%
O=C1CC(Sc2nnnn2-c2ccccc2)C(=O)N1c1cccc(Cl)c1 (configuration not stated)	67.2%
Cc1ccc(Nc2nc(NCc3ccco3)c3ccccc3n2)cc1	1.1% (inactive)
CCCCC[C@@H](C)N1C[C@@H](COCc2ccccc2)Oc2cc(N3CC[C@H](N(C)C)C3)ccc2S1(=O)=O	28% (inactive)
COc1ccc(-c2cc(NC=O)c3ncc(-c4cccc(OC)c4)n3c2)cc1	-18.8% (inactive)
CCOC(=O)c1c(NC(=O)COc2ccccc2OCC)sc2c1CC(C)(C)NC2(C)C	87.3%
CCCCC[C@@H](C)N1C[C@H](COCc2ccccc2)Oc2cc(N3CC[C@@H](N(C)C)C3)ccc2S1(=O)=O	37.2% (inactive)
COc1ccc(-c2cc(NC=O)c3ncc(-c4ccccc4)n3c2)cc1OC	-2.1% (inactive)
N#Cc1c(Nc2ccccc2Cl)s[nH]c1=O	66.4%
COc1ccc(-n2sc3ccccc3c2=O)cc1	35% (inactive)
O=C(Cn1sc2ccccc2c1=O)NC12CC3CC(CC(C3)C1)C2	35.6% (inactive)
O=CNc1cc(-c2ccsc2)cn2c(-c3ccccc3)cnc12	-17.6% (inactive)
O=c1c2ccc(F)cc2sn1-c1ccccc1	53.4%
O=C(CN1C(=O)/C(=C\c2cccc(Br)c2)Oc2ccccc21)NCCCN1CCOCC1	8% (inactive)
O=C(Cn1sc2ccccc2c1=O)Nc1ccc(F)cc1	18.2% (inactive)
O=c1c2ccccc2sn1-c1ccccc1	37.9% (inactive)
COc1ccccc1CNc1nc(NCc2ccc(C(C)C)cc2)c2sccc2n1	-14.8% (inactive)
CC1COCC(C)N1C1=C(Cl)C(=O)c2ccccc2C1=O (configuration not stated)	-16.4% (inactive)
Cc1ccc(S(=O)(=O)n2ccc3c(OCCOCCNCc4ccc(F)cc4)cccc32)cc1	-8.2% (inactive)
Cc1cc(N2CCN(c3nc(-c4ccc([N+](=O)[O-])cc4)cs3)CC2)c2ccccc2n1	78.9%
CC1=C(C)CS(=O)N(S(=O)(=O)c2ccc(Cl)cc2)C1 (configuration not stated)	83.8%
COC(=O)c1c(NC(=O)c2nc3ccccc3s2)sc2c1CC(C)(C)NC2(C)C	11.8% (inactive)
CC(C)(c1ccccc1)c1ccc(OCC(O)CNC2CCN(Cc3ccccc3)CC2)cc1 (configuration not stated)	36.4% (inactive)
CC1=NOC(=O)/C1=C/c1ccc(-c2ccc(Cl)cc2)o1	40.3% (inactive)
